The target of experiment [1] is T7.39N 5-HT1D receptor (Homo sapiens, UniProt P28221, T342N). Kind of experiment: cAMP accumulation in HEK293T cells, T7.39N 5-HT1D. Type of experiment: cell-based. The arrangement: host or cells: HEK293T. To be noted: point-mutated receptor, 3 independent experiments, read-out: pEC50 5-HT1D Receptor N7.39T (converted). Here is the method:
(§1) Briefly, cells transfected with the desired receptor construct and compounds were incubated in the dark for 90 min at 37 °C. After incubation, cAMP detection reagents were added, and TR-FRET was used to quantify the cAMP produced.
(§2) The functional activity of compounds was determined by stimulating cells expressing the desired receptor with FSK and test compound in parallel with 12 known concentrations of cAMP. The known concentrations of cAMP were used to create a standard curve for each experiment that was used to interpolate the unknown values of cAMP in wells with test compounds. […] The EC50 and EMAX values were determined using the “dose response – log[agonist] vs response (three parameter)” nonlinear regression model in Prism and transformed to pEC50 values, reported as mean ± SD.
(§3) Cell Type Receptor Cell Density [Forskolin] Incubation time
(§4) Summary of functional assay conditions at various 5-HT1 receptor point mutation constructs.

The target of experiment [2] is T1, V45.52I 5-HT1B receptor (Homo sapiens, UniProt P28222, V201I). Kind of experiment: Radioligand binding, V45.52I 5-HT1B.
Description: (§5) 48 hours after transfection with the desired receptor construct, cells were isolated for saturation and competition binding assays as previously described.[47],[48],[57] Saturation and competition radioligand binding assays were conducted in an assay buffer consisting of 50 mM Tris HCl, 10 mM MgCl2, and 0.1 mM EDTA in filtered deionized water. […] Briefly, 5–10 μg of the receptor protein, as determined by a Thermo Fisher Pierce BCA protein assay kit, was incubated with 8 concentrations of radioligand in triplicate to determine total binding. […] Nonspecific binding was determined as above for saturation assays.
(§6) For radioligand binding data, nonspecific binding was subtracted from the total binding to get specific binding. Saturation binding data was fit to the “binding saturation-specific binding with hill slope” model. Competition binding data were fit to the “binding competition-one-site fit Ki” non-linear regression model and transformed to pKi values, reported as mean ± SD.
(§7) is 50 mM Tris HCl, 10 mM MgCl2 and 0.1 mM EDTA in filtered deionized water.
Experiment [3] concerns the target T1, V45.52I 5-HT1B receptor. Briefly: cAMP accumulation in HEK293T cells, V45.52I 5-HT1B. Also noted: mutated in house (Quikchange II) HTR01B0000; host or cells: HEK293T. Type of experiment: cell-based. The note with it: point-mutated receptor, 3 independent experiments, read-out: pEC50 5-HT1B Receptor V45.52I (converted). The protocol:
as §1, §2, §3, §4
(cAMP levels reflect the balance of adenylyl cyclase and phosphodiesterase activity.)

For experiment [4], the target named is T2, V45.52I 5-HT1D receptor (Homo sapiens, UniProt P28221, V190I). Briefly: cAMP accumulation in HEK293T cells, V45.52I 5-HT1D. The format is cell-based. The arrangement: host or cells: HEK293T. To be noted: point-mutated receptor, 3 independent experiments, read-out: pEC50 5-HT1D Receptor V45.52I (converted). The protocol: as §1, §2, §3, §4
The target of experiment [5] is T3, human 5-HT1D receptor (Homo sapiens, UniProt P28221).
T3 construct: host or cells: HEK293T
Briefly: Radioligand binding (saturation and competition), WT 5-HT1D. The note with it: for higher affinity at 5-HT1D over 5-HT1A receptors: affinity ratio.

Experiment [6] concerns the target T4, S5.42A 5-HT1D receptor (Homo sapiens, UniProt P28221, S201A). Kind of experiment: Radioligand binding, S5.42A 5-HT1D.
Description: as §5, §6, §7
Experiment [7] has as its target T5, human 5-HT1A receptor (Homo sapiens, UniProt P08908).
T5 construct: host or cells: HEK293T
T5 sequence (P08908 1-422): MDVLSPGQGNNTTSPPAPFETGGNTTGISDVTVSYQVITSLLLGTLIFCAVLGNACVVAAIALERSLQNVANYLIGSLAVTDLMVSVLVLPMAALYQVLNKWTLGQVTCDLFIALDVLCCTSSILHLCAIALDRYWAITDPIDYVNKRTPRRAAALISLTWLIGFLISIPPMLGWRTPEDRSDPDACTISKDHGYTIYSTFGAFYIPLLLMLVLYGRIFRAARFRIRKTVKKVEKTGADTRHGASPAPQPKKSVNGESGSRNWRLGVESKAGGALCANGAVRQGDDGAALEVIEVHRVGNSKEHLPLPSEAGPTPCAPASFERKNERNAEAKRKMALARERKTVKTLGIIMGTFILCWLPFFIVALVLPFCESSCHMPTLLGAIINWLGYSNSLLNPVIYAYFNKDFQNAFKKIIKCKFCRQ
Kind of experiment: cAMP accumulation (LANCE Ultra TR-FRET) in HEK293T cells, WT 5-HT1A. Type of experiment: cell-based. The note with it: for Emax: HEK-293T; for EC50: cAMP accumulation, HEKt cells, mean ± SD. The protocol: as §1, §2, §4

The target in experiment [8] is T4, S5.42A 5-HT1D receptor. Kind of experiment: cAMP accumulation in HEK293T cells, S5.42A 5-HT1D. Type of experiment: cell-based. To be noted: point-mutated receptor, 3 independent experiments, read-out: pEC50 5-HT1D Receptor S5.42A (converted). Also noted: host or cells: HEK293T. Here is the method:
as §1, §2, §4

The target of experiment [9] is T2, V45.52I 5-HT1D receptor. Briefly: Radioligand binding, V45.52I 5-HT1D.
Description: as §5, §6, §7
Experiment [10] concerns the target T7.39N 5-HT1B receptor (Homo sapiens, UniProt P28222, T355N). Kind of experiment: Radioligand binding, T7.39N 5-HT1B.
Description: as §5, §6, §7
Experiment [11] addresses T6, Y5.38F 5-HT1B receptor (Homo sapiens, UniProt P28222, Y208F).
T6 construct: host or cells: HEK293T
Briefly: cAMP accumulation in HEK293T cells, Y5.38F 5-HT1B. The note with it: point-mutated receptor, 3 independent experiments, read-out: pEC50 5-HT1B Receptor Y5.38F (converted). Type of experiment: cell-based. Here is the method:
as §1, §2, §3, §4

Experiment [12] addresses T7, S5.42A 5-HT1B receptor (Homo sapiens, UniProt P28222, S212A). Kind of experiment: cAMP accumulation in HEK293T cells, S5.42A 5-HT1B. To be noted: point-mutated receptor, 3 independent experiments, read-out: pEC50 5-HT1B Receptor S5.42A (converted). The arrangement: host or cells: HEK293T. Type of experiment: cell-based. Here is the method:
as §1, §2, §3, §4

The target in experiment [13] is Y5.38F 5-HT1D receptor (Homo sapiens, UniProt P28221, Y197F). Briefly: cAMP accumulation in HEK293T cells, Y5.38F 5-HT1D. The format is cell-based. The arrangement: host or cells: HEK293T. The note with it: point-mutated receptor, 3 independent experiments, read-out: pEC50 5-HT1D Receptor Y5.38F (converted). The protocol:
as §1, §2, §4

For experiment [14], the target named is T8, Y5.38A 5-HT1D receptor (Homo sapiens, UniProt P28221, Y197A). Briefly: Radioligand binding, Y5.38A 5-HT1D.
Description: as §5, §6, §7
Experiment [15] addresses T7, S5.42A 5-HT1B receptor. Briefly: Radioligand binding, S5.42A 5-HT1B.
Description: as §5, §6, §7
Experiment [16] concerns the target T3, human 5-HT1D receptor. Kind of experiment: cAMP accumulation (LANCE Ultra TR-FRET) in HEK293T cells, WT 5-HT1D. Type of experiment: cell-based. The note with it: for Emax: HEK-293T; for higher functional potency at 5-HT1D over 5-HT1A receptors: cAMP potency ratio; for EC50: cAMP accumulation, HEKt cells, mean ± SD. The protocol:
as §1, §2, §4

Experiment [17] has as its target T8, Y5.38A 5-HT1D receptor. Briefly: cAMP accumulation in HEK293T cells, Y5.38A 5-HT1D. Also noted: host or cells: HEK293T. To be noted: point-mutated receptor, 3 independent experiments, read-out: pEC50 5-HT1D Receptor Y5.38A (converted). The format is cell-based. Here is the method:
as §1, §2, §4

Where [18] appears, read: Affinity (pKi ± SD) 5-HT1D, WT receptor, [^3H]5-CT competition, mean ± SD.
The mark [19] stands for this setting: read-out: 5-HT1A EMAX (%), WT receptor, normalized to basal (0%) and 10 μM 5-CT (100%).
Setting [20] is: read-out: 5-HT1D EMAX (%), WT receptor, normalized to basal (0%) and 10 μM 5-CT (100%).

“And” between values parts separate entries of the source, which are not always exact repeats. Equal values may be shown once. Read-outs that look alike come from different tables or passages of the source.

T4 sequence (P28221 whole entry S201A): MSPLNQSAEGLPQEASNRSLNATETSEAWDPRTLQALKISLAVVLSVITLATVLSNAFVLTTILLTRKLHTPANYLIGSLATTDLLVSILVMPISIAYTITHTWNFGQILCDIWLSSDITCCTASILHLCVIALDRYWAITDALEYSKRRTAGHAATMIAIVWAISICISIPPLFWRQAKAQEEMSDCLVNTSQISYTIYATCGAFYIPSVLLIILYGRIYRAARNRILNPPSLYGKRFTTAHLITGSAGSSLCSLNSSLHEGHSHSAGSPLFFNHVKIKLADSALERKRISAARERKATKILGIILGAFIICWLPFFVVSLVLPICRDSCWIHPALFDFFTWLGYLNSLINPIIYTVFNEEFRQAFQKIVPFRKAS
Y5.38F 5-HT1D receptor, sequence (P28221 whole entry Y197F): as the sequence (P28221 whole entry S201A) above, with Y197F, A201S counted along it
T7 sequence (P28222 whole entry S212A): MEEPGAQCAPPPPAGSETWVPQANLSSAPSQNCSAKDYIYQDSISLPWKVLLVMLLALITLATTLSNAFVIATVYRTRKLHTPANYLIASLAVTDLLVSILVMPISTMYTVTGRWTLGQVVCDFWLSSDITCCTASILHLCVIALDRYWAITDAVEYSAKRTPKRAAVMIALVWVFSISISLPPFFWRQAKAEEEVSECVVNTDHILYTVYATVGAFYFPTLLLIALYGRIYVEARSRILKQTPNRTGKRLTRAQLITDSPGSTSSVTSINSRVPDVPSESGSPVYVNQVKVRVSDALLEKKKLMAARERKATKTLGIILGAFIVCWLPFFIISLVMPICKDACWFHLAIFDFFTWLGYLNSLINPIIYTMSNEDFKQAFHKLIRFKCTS
T8 sequence (P28221 whole entry Y197A): as the sequence (P28221 whole entry S201A) above, with Y197A, A201S counted along it
T1 sequence (P28222 whole entry V201I): as the sequence (P28222 whole entry S212A) above, with V201I, A212S counted along it
T6 sequence (P28222 whole entry Y208F): as the sequence (P28222 whole entry S212A) above, with Y208F, A212S counted along it
T3 sequence (P28221 whole entry): as the sequence (P28221 whole entry S201A) above, with A201S counted along it
T7.39N 5-HT1D receptor, sequence (P28221 whole entry T342N): as the sequence (P28221 whole entry S201A) above, with A201S, T342N counted along it
T2 sequence (P28221 whole entry V190I): as the sequence (P28221 whole entry S201A) above, with V190I, A201S counted along it
T7.39N 5-HT1B receptor, sequence (P28222 whole entry T355N): as the sequence (P28222 whole entry S212A) above, with A212S, T355N counted along it

As usually defined, the Emax is the size of the effect at its maximum, as opposed to the concentration needed. Turning to `CN(C)[C@H]1CCc2c(cccc2-c2ccccc2F)C1` [(S)-FPT], the EC50 was 14.1 nM in experiment [1]; 0.776 nM in experiment [3]; 1.48 nM in experiment [4]; 1.35 nM in [8]; 0.813 nM in experiment [11]; 1.02 nM in experiment [12]. Besides, the EC50 in experiment [13] is 1.55 nM; in [17] it was 1.45 nM. In addition, the Ki is 1.91 nM in experiment [2]; 1.07 nM in experiment [5] (setting [18]); 1.29 nM in [6]; 1.05 nM in experiment [9]; 7.41 nM in [10]; 1.07 nM in experiment [14]. Further, the Ki in [15] is 2.57 nM. The “higher affinity at 5-HT1D over 5-HT1A receptors” value in experiment [5] is listed as 4 fold. For the same compound, the Emax in experiment [7] (setting [19]) is 90 ± 2%; in experiment [16] (setting [20]) it was 103 ± 3%. In addition, the “higher functional potency at 5-HT1D over 5-HT1A receptors” value in experiment [16] is given as about 80 fold.

As for `CN(C)[C@H]1CCc2c(cccc2-c2cccc3ccccc23)C1` [(S)-NAP], the EC50 in [1] was 10 nM; in [3], 224 nM; in experiment [4], 257 nM; in experiment [7] (5-HT1A pEC50, WT receptor), 389 nM; in [8], 10 nM; in experiment [11] it was 35.5 nM. The EC50 was 35.5 nM in experiment [12]; 11.2 nM in [13]; 8.71 nM in experiment [16] (5-HT1D pEC50, WT receptor); 288 nM in experiment [17]. For the same compound, the Ki in experiment [2] is 41.7 nM; in experiment [5] (setting [18]), 0.832 nM; in experiment [6], 1.17 nM; in [9], 37.2 nM; in [10], 6.46 nM; in experiment [14] it was 70.8 nM. Also, the Ki in experiment [15] is 5.89 nM. For the same compound, in [5], the “higher affinity at 5-HT1D over 5-HT1A receptors” value was 70 fold. Further, the Emax in experiment [7] (setting [19]) stood at 72 ± 4%; in [16] (setting [20]), 90 ± 3%. In addition, the “higher functional potency at 5-HT1D over 5-HT1A receptors” value in experiment [16] is recorded as about 40 fold.

`Fc1ccccc1-c1cccc2c1CC[C@H](N1CCCC1)C2` [(S)-PFPT]: the EC50 in experiment [1] is 18.6 nM; in [3], 51.3 nM; in experiment [4] it was 58.9 nM; in experiment [7] (WT receptor, read-out: 5-HT1A pEC50 (converted)), 1.66 nM; in [8], 309 nM; in experiment [11], 55 nM. For the same compound, the EC50 in experiment [12] is 316 nM; in experiment [13] it was 240 nM; in [16] (WT receptor, read-out: 5-HT1D pEC50 (converted)), 57.5 nM; in [17], 191 nM. Moreover, the Ki is 14.5 nM in [2]; 13.5 nM in experiment [5] (read-out: Affinity (pKi ± SD) 5-HT1D (converted)); 41.7 nM in experiment [6]; 14.8 nM in experiment [9]; 5.89 nM in experiment [10]; 42.7 nM in experiment [14]. The Ki in [15] was 102 nM. Also, the Emax in experiment [7] (read-out: 5-HT1A EMAX (%)) amounted to 100 ± 2%; in experiment [16] (read-out: 5-HT1D EMAX (%)) it was 98 ± 3%. Besides, in [7] (cAMP potency ratio), the “higher functional potency at 5-HT1A over 5-HT1B and 5-HT1D receptors” value was ~40 fold and 35 fold.

The values above are taken from paper PMC10797628.
